This is an account of results in patent publication US20090111857A1, “1,2,4-TRIAZOLE ETHER DERIVATIVES AS MODULATORS OF MGLUR5” (AstraZeneca AB, priority 2007, published 2009).

Data set [1] in a line: Determination of brain to plasma ratio in rat. It is filed as in vivo. The settings on record: brain and plasma, female Sprague Dawley rats, drug in brain over drug in plasma, read-out: Brain/Plasma Ratio of compound in Rat. The procedure:
Brain to plasma ratios are estimated in female Sprague Dawley rats. The compound is dissolved in water or another appropriate vehicle. For determination of brain to plasma ratio the compound is administrated as a subcutaneous, or an intravenous bolus injection, or an intravenous infusion, or an oral administration. At a predetermined time point after the administration a blood sample is taken with cardiac puncture. The rat is terminated by cutting the heart open, and the brain is immediately retained. The blood samples are collected in heparinized tubes and centrifuged within 30 minutes, in order to separate the plasma from the blood cells. The plasma is transferred to 96-well plates and stored at −20° C. until analysis. The brains are divided in halt and each half is placed in a pre-tarred tube and stored at −20° C. until analysis. Prior to the analysis, the brain samples are thawed and 3 mL/g brain tissue of distilled water is added to the tubes. The brain samples are sonicated in an ice bath until the samples are homogenized. Both brain and plasma samples are precipitated with acetonitrile. After centrifugation, the supernatant is diluted with 0.2% formic acid. Analysis is performed on a short reversed-phase HPLC column with rapid gradient elution and MSMS detection using a triple quadrupole instrument with electrospray ionisation and Selected Reaction Monitoring (SRM) acquisition. Liquid-liquid extraction may be used as an alternative sample clean-up. The samples are extracted, by shaking, to an organic solvent after addition of a suitable buffer. An aliquot of the organic layer is transferred to a new vial and evaporated to dryness under a stream of nitrogen. After reconstitution of the residuals the samples are ready for injection onto the HPLC column.

For another data set, the target named is T1, human mGluR5d (Homo sapiens, UniProt P41594).
T1 construct: expressed in transfected cells; The separate IP3 assay names GHEK cells
Description: FLIPR assay: mobilization of intracellular calcium in cells expressing human mGluR5d. The settings on record: antagonism of agonist-induced [Ca2+]i response, read-out: FLIPR hmGluR5d. It is filed as cell-based. The source says:
Functional Assessment of mGluR5 Antagonism in Cell Lines Expressing mGluR5D
The properties of the compounds of the invention can be analyzed using standard assays for pharmacological activity. Examples of glutamate receptor assays are well known in the alt as described in for example Aramori et al., Neuron 8:757 (1992), Tanabe et al., Neuron 8:169 (1992), Miller et al., J. Neuroscience 15: 6103 (1995), Balazs, et al., J. Neurochemistry 69:151 (1997). The methodology described in these publications is incorporated herein by reference. Conveniently, the compounds of the invention can be studied by means of an assay (FLIPR) that measures the mobilization of intracellular calcium, [Ca^2+]i in cells expressing mGluR5 or another assay (IP3) that measures inositol phosphate turnover.
Cells expressing human mGluR5d as described in WO97/05252 cultured in a mixture of high glucose DMEM with Glutamax (31966-021)(500 mL), 10% dialyzed fetal bovine serum (Hyclone #SH30079.03)(56 mL), 200 μg/in L Hygromycin B (Invitrogen 45-0430, 50 mg/mL)(2.2 mL), 200 μg/mL Zeocin (Invitrogen #R250-01; 100 mg/mL)(1.1 mL) are seeded at a density of 100,000 cells per well on collagen coated clear bottom 96-well plates with black sides and cells were allowed to adhere over night before experiments. All assays are done in a buffer containing 146 mM NaCl, 5 mM KCl, 1 mM MgCl2, 1 mM CaCl2, 20 mM HEPES, 1 mg/mL glucose and 1 mg/mL BSA Fraction IV (pH 7.4). Cell cultures in the 96-well plates are loaded for 60 minutes in the above mentioned buffer containing 6 μM of the acetoxymethyl ester form of the fluorescent calcium indicator fluo-3 (Molecular Probes, Eugene, Oreg.) in 0.025% pluronic acid (a proprietary, non-ionic surfactant polyol—CAS Number 9003-11-6). Following the loading period the fluo-3 buffer is removed and replaced with fresh assay buffer. FLIPR experiments are done using a laser setting of 0.700 W and a 0.4 second CCD camera shutter speed with excitation and emission wavelengths of 488 nm and 562 nm, respectively. Each experiment is initiated with 160 μl of buffer present in each well of the cell plate. A 40 μl addition from the antagonist plate was followed by a 50 μL addition from the agonist plate. A 30 minutes, in dark at 25° C., interval separates the antagonist and agonist additions. The fluorescence signal is sampled 50 times at 1-second intervals followed by 3 samples at 5-second intervals immediately after each of the two additions. Responses are measured as the difference between the peak heights of the response to agonist less the background fluorescence within the sample period. IC50 determinations are made using a […] least squares fitting program.
(A change in cytosolic calcium serves as a functional read-out for many receptors and channels.)

T1 sequence (P41594 21-942 isoform P41594-3 limits assumed): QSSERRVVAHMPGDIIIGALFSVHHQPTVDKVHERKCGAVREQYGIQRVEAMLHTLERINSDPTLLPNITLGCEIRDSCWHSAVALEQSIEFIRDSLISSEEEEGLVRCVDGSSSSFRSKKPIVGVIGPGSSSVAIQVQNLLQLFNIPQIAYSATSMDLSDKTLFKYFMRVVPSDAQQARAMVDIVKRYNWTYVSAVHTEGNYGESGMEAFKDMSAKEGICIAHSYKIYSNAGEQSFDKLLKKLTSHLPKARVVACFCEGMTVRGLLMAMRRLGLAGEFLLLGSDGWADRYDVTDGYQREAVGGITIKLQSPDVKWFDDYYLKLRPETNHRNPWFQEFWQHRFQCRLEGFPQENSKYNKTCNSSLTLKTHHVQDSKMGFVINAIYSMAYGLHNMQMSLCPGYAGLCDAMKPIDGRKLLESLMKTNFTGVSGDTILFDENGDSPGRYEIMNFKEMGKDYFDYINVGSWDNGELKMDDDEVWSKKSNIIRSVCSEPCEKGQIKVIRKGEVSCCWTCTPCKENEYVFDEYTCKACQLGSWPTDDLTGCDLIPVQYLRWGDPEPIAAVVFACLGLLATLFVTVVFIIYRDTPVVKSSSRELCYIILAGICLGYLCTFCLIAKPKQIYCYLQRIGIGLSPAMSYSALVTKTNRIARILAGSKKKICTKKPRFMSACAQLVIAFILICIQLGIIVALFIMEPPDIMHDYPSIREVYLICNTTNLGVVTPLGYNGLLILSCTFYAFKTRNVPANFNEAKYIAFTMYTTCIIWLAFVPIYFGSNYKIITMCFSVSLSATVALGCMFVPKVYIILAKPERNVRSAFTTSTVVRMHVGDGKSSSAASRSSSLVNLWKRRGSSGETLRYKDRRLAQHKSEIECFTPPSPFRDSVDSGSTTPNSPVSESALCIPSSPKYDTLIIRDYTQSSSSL

For the molecule `Cc1cccc(-n2nnc([C@@H](C)Oc3nnc(-c4ccc(C(N)=O)cn4)n3C)n2)c1` [Example 10.4, 6-(4-Methyl-5-{(1R)-1-[2-(3-methylphenyl)-2H-tetrazol-5-yl]ethoxy}-4H-1,2,4-triazol-3-yl)nicotinamide], the Kp in data set [1] was determined as 0.09. Also, the IC50 on human mGluR5d stood at 6 nM.
For `C[C@@H](Oc1nnc(-c2ccc(C(N)=O)cn2)n1C)c1nnn(-c2cccc(Cl)c2)n1` [Example 10.3, 6-(5-{(1R)-1-[2-(3-Chlorophenyl)-2H-tetrazol-5-yl]ethoxy}-4-methyl-4H-1,2,4-triazol-3-yl)nicotinamide], the Kp in data set [1] is 0.075. Moreover, the IC50 on human mGluR5d was determined as 5 nM.
Regarding `C[C@@H](Oc1nnc(-c2ccc(C(N)=O)cc2)n1C)c1nnn(-c2cccc(Cl)c2)n1` [Example 10.2, 4-(5-{(1R)-1-[2-(3-Chlorophenyl)-2H-tetrazol-5-yl]ethoxy}-4-methyl-4H-1,2,4-triazol-3-yl)benzamide], in data set [1], the Kp worked out at 0.01. On human mGluR5d, the IC50 was found to be 6 nM.
In the same order, the values of `C[C@@H](Oc1nnc(-c2ccc(C(N)=O)cc2)n1C)c1noc(-c2cccc(Cl)c2)n1` [Example 10.1, 4-(5-{(1R)-1-[5-(3-Chlorophenyl)-1,2,4-oxadiazol-3-yl]ethoxy}-4-methyl-4H-1,2,4-triazol-3-yl)benzamide] are 0.03 and 8 nM.
